The record followed here is patent publication US6107275A, “Cyclic Antiplatelet peptides with pseudo-bond” (Merrell Pharmaceuticals Inc., priority 1997, dated 2000).

The target of one assay is T1, Purified GPIIbIIIa (Homo sapiens, UniProt P05106+P08514).
T1 construct: GPIIbIIIa was purified from human platelets; from tissue; host or cells: human platelets
Briefly: GPIIbIIIa (fibrinogen) enzyme-linked immunoassay (ELISA). To be noted: purified human platelet GPIIbIIIa binding to immobilized fibrinogen; read-out: GPIIbIIIa (Fibrogen ELISA IC50). The procedure:
GPIIbIIIa Enzyme-Linked Immunoassay
Low solubility fibrinogen, prepared as described by Lipinska et al., J. Lab. Clin. Med., 84, 509-516 (1974) (human, KABI) was immobolized at 5 μg/well on Immunolon 2-96 well plates (inculated overnight at 4° to bind to the wells). The wells were blocked with 0.5% bovine serum albumin in buffer A ([…] Tris-HCl, pH 7.5, 2 mM CaCl2, 120 mM […], and 0.02% NaN3) for two hours at room temperature. All subsequent steps were carried out at room temperature. The wells were washed three times with buffer A plus 0.5% Tween 20 (BioRad). Purified GPIIbIIIa (2 μg/well) plus synthetic peptides supplements at the indicated concentrations were conincubated for 90 to 120 min with immobilized fibrinogen. The wells were washed as above, then the anti-GPIIbIIIa monoclonal antibody, CD41a, was added to each well and incubated for 60 min. After another three washes, goat anti-mouse horseradish peroxidase conjugate was added to each well (60 min). The wells were washed three times with buffer A plus detergent, followed by two washes with buffer A minus detergent. The peroxidase substrate, 3,3',5,5'-tetramethylbenzidine (Kirkegaard and Perry Laboratories, Inc.) was added to the wells for color development. The reaction was stopped with 0.3N H2 SO4, and absorbances were measured at 450 mn using a microplate reader (Multiscan II, Flow-Titertek).
GPIIbIIIa was purified from human platelets as described by Fitzgerald, et al., Anal. Biochem., 151, 169-177 (1985), except that the final gel purification step was performed with an HW55 size exclusion column (Waters, Advanced Protein Purification System), instead of Sephacryl S-300. The protein, greater than 90% pure as assessed by SDS polyacrylamide gel electrophoresis, was stored at -80° C. in small aliquots.
(An ELISA detects its analyte on a solid surface through an enzyme-linked reagent.)

For the next assay, the target named is human platelets (Homo sapiens, UniProt P05106+P08514). The experiment in a line: 125I-Fibrinogen binding to platelets. To be noted: 0.1 μM 125I-fibrinogen, thrombin or activator peptide stimulus. The protocol:
Preparation of Human Platelets
Human blood was collected by venipuncture in tubes containing one-tenth volume of acid-citrate-dextrose as an anticoagulant. Platelet-rich plasma was prepared by centrifugation of the blood for 10 min at 500 g at room temperature. The platelet-rich plasma was decanted and one-tenth volume of acid-citrate-dextrose was added followed by centrifugation at 1000 g at room temperature for 10 min to sediment the platelets. The platelets were suspended in two ml modified Tyrode's buffer (2 M NaCl, 0.5 M dextrose, 0.2 M NaHCO3, 0.1 M KCl, 0.1 M MgCl2, 0.1 M NaH2 PO4 and 0.1 M HEPES, pH 7.3) containing 0.35% bovine serum albumin and then filtered on a 50 ml column of Sepharose 2B (Pharmacia) equilibrated with Tyrode's buffer. Finally, the platelets were counted in an automated hematology analyzer.
Human low solubility fibrinogen (Kabi) was prepared as described previously (Lipinska et al., 1974). For ^125 I labeling, fibrinogen (1 mg) was incubated with three Iodo-Beads (Pierce Chemical Co.) and 1 mCi of Na^125 I for 15 min after with ^125 I-fibrinogen was separated from free radioactivity by filtration through a PD-10 column (Pharmacia). The specific activity was approximately 1-5×10^17 CPM/mol fibrinogen.
Binding of fibrinogen to human platelets was performed as described by Plow and Ginsberg (1981). Binding assays contained, in a volume of 0.2 ml, 1-2×10^7 platelets, 0.1 μM ^125 I-fibrinogen, 2 mM CaCl2 and 0.1 U/ml thrombin or various concentrations of activator peptides as a stimulus. Incubations were carried out in 1.2 ml Eppendorf microcentrifuge tubes at room temperature for 30 min and then duplicate 75 μl aliquots were layered onto 0.4 ml of 20% sucrose in Tyrode's buffer containing 1% bovine serum albumin and platelets were sedimented by centrifugation at 10,000 g for 5 min in a Beckman microcentrifuge. Tips of the centrifuge tubes were amputated and bound ^125 I-fibrinogen was measured in a gamma counter (LKB/Pharmacia). Nonspecifically bound radioactivity was determined in incubations in which activators were excluded and these values were 1-5% of those obtained with thrombin activation.

Assay [1] concerns the target Human platelet rich plasma (PRP) (Homo sapiens, UniProt P05106+P08514). The conditions noted are these: read-out: Platelet Aggregation ADP Induced IC50, ADP (1 μM). The protocol:
Platelet Aggregation In Vitro
Human platelet rich plasma (PRP) was prepared by centrifugation at 200×g for 10 min. at room temperature. Platelet poor plasma (PPP) was prepared by centrifugation at 2000×g for 10 min. PRP was exposed only to plastic laboratory ware. All experiments were completed within 3 hr of blood collection. Platelet aggregation was measured photometrically using a Chrono-log dual channel aggregometer (Chrono-log Corp., Haverstown, Pa. 19083). One hundred percent light transmission was defined with autologus PPP. Percent maximal change in light transmission was determined from PRP following addition of ADP (1 μM) or thrombin. […] MDL 102,530 was incubated with PRP (0.45 ml) for 30 sec prior to the addition of ADP or thrombin. Aggregation was measured in a total volume of 0.5 ml. Inhibitory responses were expressed s percent inhibition when compared to a control value. The concentration resulting in 50% inhibition of aggregation (IC50) was calculated by simple linear regression.

Sequence of human platelets (P08514 32-1039): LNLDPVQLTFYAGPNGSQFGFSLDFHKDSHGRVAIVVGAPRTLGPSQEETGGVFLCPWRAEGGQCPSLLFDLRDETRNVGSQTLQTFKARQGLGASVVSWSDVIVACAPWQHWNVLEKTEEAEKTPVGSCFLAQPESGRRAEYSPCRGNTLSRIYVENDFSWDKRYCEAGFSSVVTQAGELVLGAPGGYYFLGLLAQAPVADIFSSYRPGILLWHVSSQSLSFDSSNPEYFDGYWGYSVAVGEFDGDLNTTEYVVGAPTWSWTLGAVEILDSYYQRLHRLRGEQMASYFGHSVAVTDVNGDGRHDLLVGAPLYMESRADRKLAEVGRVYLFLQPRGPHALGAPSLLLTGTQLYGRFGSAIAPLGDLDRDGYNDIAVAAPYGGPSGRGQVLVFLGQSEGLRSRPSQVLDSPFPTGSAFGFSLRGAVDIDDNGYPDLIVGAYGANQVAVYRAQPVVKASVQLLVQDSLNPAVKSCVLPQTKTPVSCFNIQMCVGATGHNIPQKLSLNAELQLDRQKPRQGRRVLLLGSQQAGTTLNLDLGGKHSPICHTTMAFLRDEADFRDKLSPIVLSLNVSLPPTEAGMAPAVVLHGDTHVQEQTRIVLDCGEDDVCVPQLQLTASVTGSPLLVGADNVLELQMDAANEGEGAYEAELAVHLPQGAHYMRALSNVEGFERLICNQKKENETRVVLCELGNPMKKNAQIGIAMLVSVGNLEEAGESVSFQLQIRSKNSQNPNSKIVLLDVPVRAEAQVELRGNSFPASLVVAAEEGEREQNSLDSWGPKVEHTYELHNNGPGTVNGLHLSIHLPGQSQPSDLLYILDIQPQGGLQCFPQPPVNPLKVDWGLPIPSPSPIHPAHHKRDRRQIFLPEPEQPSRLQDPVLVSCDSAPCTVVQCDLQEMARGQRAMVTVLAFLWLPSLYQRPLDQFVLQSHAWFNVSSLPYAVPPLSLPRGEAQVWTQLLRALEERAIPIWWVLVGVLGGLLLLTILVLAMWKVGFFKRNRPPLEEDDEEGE
Sequence of human platelets (P05106 27-788): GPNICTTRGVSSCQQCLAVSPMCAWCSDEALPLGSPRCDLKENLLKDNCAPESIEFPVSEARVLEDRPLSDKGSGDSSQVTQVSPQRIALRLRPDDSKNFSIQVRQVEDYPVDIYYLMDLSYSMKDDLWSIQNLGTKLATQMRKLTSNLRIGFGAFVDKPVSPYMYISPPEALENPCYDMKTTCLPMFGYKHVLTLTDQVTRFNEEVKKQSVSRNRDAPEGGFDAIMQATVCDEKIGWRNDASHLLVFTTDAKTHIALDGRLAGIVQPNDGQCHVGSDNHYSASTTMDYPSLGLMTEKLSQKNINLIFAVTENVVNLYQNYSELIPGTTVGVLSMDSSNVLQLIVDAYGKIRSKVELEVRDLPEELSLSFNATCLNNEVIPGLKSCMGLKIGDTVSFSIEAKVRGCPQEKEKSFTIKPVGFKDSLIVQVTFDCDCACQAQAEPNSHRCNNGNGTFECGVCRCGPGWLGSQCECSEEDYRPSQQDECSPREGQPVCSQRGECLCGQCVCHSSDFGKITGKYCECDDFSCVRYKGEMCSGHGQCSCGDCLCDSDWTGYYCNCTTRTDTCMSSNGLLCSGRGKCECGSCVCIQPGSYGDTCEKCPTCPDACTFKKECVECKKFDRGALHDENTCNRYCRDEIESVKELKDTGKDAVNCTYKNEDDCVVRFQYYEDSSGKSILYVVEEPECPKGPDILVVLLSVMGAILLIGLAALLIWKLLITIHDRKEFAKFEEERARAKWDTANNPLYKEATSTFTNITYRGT
T1 sequence (P08514 32-887 limits assumed): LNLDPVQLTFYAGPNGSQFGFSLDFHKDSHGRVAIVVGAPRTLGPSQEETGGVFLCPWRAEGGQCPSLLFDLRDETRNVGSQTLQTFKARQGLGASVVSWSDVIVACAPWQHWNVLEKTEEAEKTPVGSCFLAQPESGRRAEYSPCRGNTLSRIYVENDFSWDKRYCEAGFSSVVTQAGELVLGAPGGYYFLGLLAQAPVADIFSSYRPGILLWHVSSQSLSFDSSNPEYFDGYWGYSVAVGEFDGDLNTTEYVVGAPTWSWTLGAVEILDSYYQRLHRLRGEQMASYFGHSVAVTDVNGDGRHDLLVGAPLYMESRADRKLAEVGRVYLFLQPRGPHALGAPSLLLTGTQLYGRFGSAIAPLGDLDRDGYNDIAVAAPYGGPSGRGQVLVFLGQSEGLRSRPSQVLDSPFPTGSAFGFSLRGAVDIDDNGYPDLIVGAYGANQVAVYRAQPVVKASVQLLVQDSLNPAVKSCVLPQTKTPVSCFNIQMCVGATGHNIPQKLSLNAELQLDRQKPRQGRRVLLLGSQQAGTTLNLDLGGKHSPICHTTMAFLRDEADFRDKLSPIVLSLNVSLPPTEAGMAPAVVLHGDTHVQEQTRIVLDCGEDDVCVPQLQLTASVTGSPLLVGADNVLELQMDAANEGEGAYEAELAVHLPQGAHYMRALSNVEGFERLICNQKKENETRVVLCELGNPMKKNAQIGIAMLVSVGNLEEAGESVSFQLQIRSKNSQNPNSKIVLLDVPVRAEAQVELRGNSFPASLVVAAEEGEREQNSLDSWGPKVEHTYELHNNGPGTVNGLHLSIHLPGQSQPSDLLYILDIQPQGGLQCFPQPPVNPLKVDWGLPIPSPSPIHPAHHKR
T1 sequence (P08514 891-1039 partner limits assumed): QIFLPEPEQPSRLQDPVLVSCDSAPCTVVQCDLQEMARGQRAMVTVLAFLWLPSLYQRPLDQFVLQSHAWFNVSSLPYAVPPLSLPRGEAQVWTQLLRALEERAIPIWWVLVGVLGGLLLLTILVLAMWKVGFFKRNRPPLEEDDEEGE
T1 sequence (P05106 27-788): as the sequence (P05106 27-788) above
Sequence of Human platelet rich plasma (PRP) (P08514 32-1039): as the sequence (P08514 32-1039) above
Sequence of Human platelet rich plasma (PRP) (P05106 27-788): as the sequence (P05106 27-788) above

A word on the IC50: it is the concentration needed to halve the response being measured. For `C[C@H]1CN[C@@H](CCCNC(=N)N)C(=O)NCC(=O)N[C@@H](CC(=O)O)C(=O)N[C@H](C(=O)NCc2ccccc2)CCC(=O)N1` [I], the IC50 at Purified GPIIbIIIa stood at 200 nM; at human platelets it was 2400 nM.
On to `C[C@H]1CN(CCCc2ccccc2)[C@@H](CCCNC(=N)N)C(=O)NCC(=O)N[C@@H](CC(=O)O)C(=O)N[C@H](C(=O)NCc2ccccc2)CCC(=O)N1` [IV], for which the figures for the IC50 (at Purified GPIIbIIIa; in assay [1]; on human platelets) were 300 nM, 6.4 µM and 270 nM, respectively.
As for `C[C@H]1CN(C(=O)CCN)[C@@H](CCCNC(=N)N)C(=O)NCC(=O)N[C@@H](CC(=O)O)C(=O)N[C@H](C(=O)NCc2ccccc2)CCC(=O)N1` [III], the IC50 at Purified GPIIbIIIa turned out to be 3000 nM; in assay [1], 49.2 µM; on human platelets it was 2400 nM.
Turning to `C[C@H]1CN(CCCC(=O)O)[C@@H](CCCNC(=N)N)C(=O)NCC(=O)N[C@@H](CC(=O)O)C(=O)N[C@H](C(=O)NCc2ccccc2)CCC(=O)N1` [II], the IC50 on Purified GPIIbIIIa turned out to be 540 nM; at human platelets, 1200 nM.
